In PubChem BioAssay AID2305 (GlaxoSmithKline (GSK), 2010):

These molecules were tested on P. falciparum 3D7 growth, pLDH absorbance (assay: blood-stage malaria parasite growth potency – strain 3D7, dose response (AID 2305)).

| SMILES | IC50 [nM] |
| --- | --- |
| Cc1nc(N)nc(N)c1-c1ccc(Br)c([N+](=O)[O-])c1 | 200 |
| O=C(NCCCCN1CCC(c2ccc3c(c2OCCOCCO)CCCC3)CC1)c1ccc(-c2ccc(C(F)(F)F)cc2)cc1 | 280 |
| CCN(CC)C(=O)C(=O)c1c[nH]c2ccc(Cl)cc12 | 80 |
| COc1ccc2ncc(C#N)c(CCN3CCC(NCc4ccc5c(c4)OCCO5)CC3)c2c1 | 910 |
| COc1ccc(NC(=O)Nc2ccc(-c3ccncc3)c(C(F)(F)F)c2)cc1N1CCN(C)CC1 | 760 |
| Cc1cc(NN=Cc2ccccc2)c2cc(F)ccc2n1 | 580 |
| COc1coc(C(=O)NC2CCN(CC3(c4ccc(Cl)cc4)CCC3)CC2)c1OC | 160 |
| CC(Oc1cc(-n2cnc3ccc(NC(=O)CCN4CCCCC4)cc32)sc1C(N)=O)c1ccccc1Cl (centres undefined) | 400 |
| Cc1cccc2[nH]c(-c3ccc(-c4ccc(CNCCCN5CCCC5=O)cc4)s3)nc12 | 750 |
| CCCNC(=O)c1ccc(N2CCC(c3ccccc3C)CC2)nc1 | 1520 |
| O=S(=O)(c1ccc(Cl)cc1Cl)N1CCCCC(c2ccc(C(F)(F)F)cc2)=N1 | 160 |
| COc1cc(OC)c(NC(=O)C2c3ccccc3C(=O)N(C)C2c2cccs2)cc1Cl (centres undefined) | 760 |
| O=C(Nc1ccc(Cl)c(Cl)c1)N(Cc1ccccc1Br)C1CCNCC1 | 1030 |
| O=C(Nc1ccc(C(F)(F)F)cc1)NC1CCN(c2ccnc3cc(Cl)ccc23)C1 (centres undefined) | 140 |
| CCCCN(CCCC)Cc1cc2ccccc2cc1O | 350 |
| CC(C)CCNCC(O)Cn1c2ccc(Cl)cc2c2cc(Cl)ccc21 (centres undefined) | 450 |
| COc1ccccc1Cc1c(C)nc2nc(N)nc(N)c2c1C | 570 |
| O=C(NC1CCC(N2CCN(c3cccc4[nH]ccc34)CC2)CC1)c1cc2cccnc2[nH]1 (centres undefined) | 490 |
| COc1ccccc1C1CCN(C2CCC(NC(=O)/C=C/c3ccc(F)c(F)c3)CC2)CC1 (centres undefined) | 1320 |
| COc1ccc(NC(=O)/C=C/c2ccccc2Cl)cc1OCCN1CCC(NCc2cccnc2)CC1 | 760 |
| CC(CCc1ccccc1)NCC(O)c1ccc2c(c1)S(=O)(=O)c1ccccc1N2 (centres undefined) | 1220 |
| NC(=O)c1ccsc1NC(=O)CNC(c1ccccc1)c1ccccc1 | 940 |
| Cc1cc2c(cc1C(F)(F)F)N(C(=O)Nc1cc(C(=O)NC3CCN(Cc4ccccc4)C3)cc(C(F)(F)F)c1)CC2 (centres undefined) | 340 |
| O=C1CCCN1CCCNCc1cccc(-c2ccc(-c3nc4ccc(C(F)(F)F)cc4[nH]3)s2)c1 | 450 |
| Cc1nc(C)c(-c2ccc(Oc3ccc(OC(F)(F)F)cc3)cc2)c(OC(=O)c2ccccc2)c1Cl | 180 |

| SMILES | IC50 [nM] |
| --- | --- |
| COc1ccc2nc(Nc3nc4ccncc4[nH]3)sc2c1 | 1130 |
| CCCCOC(=O)C1=C(C)NC2=C(C(=O)CC(c3ccc(OC)c(OC)c3)C2)C1c1ccc(O)cc1 (centres undefined) | 830 |
| CC(Cc1ccc(OCCCCOc2ccccc2)cc1)NCCCc1nc2ccccc2[nH]1 (centres undefined) | 980 |
| COc1ccc(CN2CCN(CCOC(c3ccc(F)cc3)c3ccc(F)cc3)CC2)c(O)c1 | 730 |
| COC(=O)C(NC(=O)NC1CCN(c2ccnc(Nc3ccc(F)cc3)n2)C1)c1ccccc1 (centres undefined) | 1050 |
| CC(C)C1=CC(=NOS(=O)(=O)c2ccccc2)C=C(C(C)C)C1=O | 710 |
| Nc1nc2ncn(COC(COCc3ccccc3)COCc3ccccc3)c2c(=O)[nH]1 (tested in a mixture with another compound) | 710 |
| O=C1c2ccc([N+](=O)[O-])cc2C(=O)N1c1ccc2[nH]ncc2c1 | 1150 |
| Cc1ccc(Nc2nc(-c3ccccn3)cs2)nc1 | 750 |
| Cc1cnc(Nc2ccccc2)nc1N[C@@H](CCCN)C(=O)Nc1ccccc1 | 810 |
| CC[C@H](C)CNC(=O)c1cncc(-c2ccc(CNC3Cc4ccccc4C3)cc2)c1 | 830 |
| CN1CCN(c2cccc(-c3nnc(-c4cccc(OCC(=O)NCc5ccc(C(F)(F)F)cc5)c4)o3)c2)CC1 | 760 |
| COc1ccc(NC(=O)[C@H](CC(C)C)Nc2cc(C)nc(Nc3ccccc3)n2)cc1 | 870 |
| COc1ccccc1CCNC(=O)c1cc(Br)cc(N2CCN(c3ccncc3)CC2)c1 | 1270 |
| O=C(NCC1CCN(Cc2cccc(C(F)(F)F)c2)C1)c1cc(-c2cccc(F)c2)cs1 (centres undefined) | 1180 |
| O=C(CN1CCN(C(C(=O)Nc2cc(C(F)(F)F)ccc2Cl)c2ccccc2)CC1)NC1CC1 (centres undefined) | 440 |
| CCCCCCN1CCC(NCc2ccc(Cl)cc2)CC1 | 850 |
| O=C(Nc1cccc(-c2cccc(-c3nc4ccccc4[nH]3)c2)c1)c1ccoc1 | 740 |
| CC(C)(C)c1ccc(CNC(=O)c2cc(CNC3CCC(N)CC3)ccc2O)cc1 (centres undefined) | 1030 |
| NC(N)=NC(=O)Nc1cc(Cl)c(Cl)c(Cl)c1 | 590 |
| COc1cc(Cc2cnc(N)nc2N)cc(OC(C)C)c1OC | 1040 |
| O=S(=O)(c1ccccc1OC(F)(F)F)C1C[C@H]2CC[C@@H](C1)N2S(=O)(=O)c1cccc(C(F)(F)F)c1 (some centres undefined) | 670 |
| N#Cc1ccc(NC(=NCc2cccnc2)Nc2ccc(-c3ccccc3)cc2)c(O)c1 | 810 |
| O=C(/C=C/c1ccc(Cl)c(Cl)c1)NCCCCCN1CCN(C(=O)Nc2ccc(OC(F)F)cc2)CC1 | 950 |
| Brc1ccc(C=NNc2nc3ccccc3[nH]2)cc1 | 700 |

| SMILES | IC50 [nM] |
| --- | --- |
| CCOc1ccc(C(C)NC(=O)Nc2ccccc2)cc1OCC (centres undefined) | 900 |
| Cc1cc(OCCCN2CCC(NS(=O)(=O)c3cccc(Br)c3)C2)c2ccccc2n1 (centres undefined) | 1210 |
| CCOC(=O)CCCc1cc(NC2CCN(C)CC2)nc(Nc2ccc(C)cc2)n1 | 260 |
| Nc1ccc(-c2ccc(NC(=O)Nc3ccccc3)cc2)cn1 | 920 |
| O=S(=O)(Nc1ccc(CCN2CCCCC2CCN2CCCC2)cc1)c1ccc(-c2ccccc2)cc1 (centres undefined) | 930 |
| CC(C)(C)c1cc(C(=O)N2CCN(c3ncccc3C(F)(F)F)CC2)n(Cc2ccccc2)n1 | 250 |
| Oc1ccccc1CN1CCC(CCOC(c2ccccc2)c2ccc(Cl)cc2)CC1 (centres undefined) | 740 |
| O=C(Nc1cccc(-c2ccc(-c3nc4ccc(C(F)(F)F)cc4[nH]3)s2)c1)c1ccncc1 | 680 |
| CC(Nc1ccc2c(c1)CCC2)C(=O)Nc1cc(C(F)(F)F)ccc1N1CCOCC1 (centres undefined) | 90 |
| Nc1c2ccccc2nc2ccc(Cl)cc12 | 810 |
| CC1(C)N=C(N)N=C(N)N1OCc1ccc2ccccc2c1CON1C(N)=NC(N)=NC1(C)C | 660 |
| Cc1cc(N)nc2cc(CNCCc3ccccc3Br)ccc12 | 130 |
| CN(C)CCOc1cccc(NC(=O)Nc2ccc(-c3ccccc3)cc2)c1 | 880 |
| CC1CN(c2cc(=O)n(Cc3cccc(NC(=O)Nc4ccc(-c5ccccc5)cc4)c3)cn2)CC(C)N1 (centres undefined) | 400 |
| CC(C)(C)c1ccc(Cn2c(=N)n(CC(=O)c3ccc(-c4ccccc4)cc3)c3ccccc32)cc1 | 160 |
| CC(C)(CNC(=O)C1CCN(Cc2ccoc2)CC1)c1nc(-c2ccc(Cl)c(O)c2)c(-c2ccncc2)[nH]1 | 870 |
| CNCCNCc1cccc(-c2ccc(-c3nc4c(C)cccc4[nH]3)cc2)c1 | 800 |
| Cc1cc(C(=O)N(Cc2ccc(-c3ccc(CNCCc4ccc(S(C)(=O)=O)cc4)cn3)cc2)C(C)CN(C)C)ccc1[N+](=O)[O-] (centres undefined) | 790 |
| CN(C)CCNc1ncnc2c1[nH]c1ccc(Cl)cc12 | 600 |
| COc1ccc(-c2cccc(NC(=O)c3cccc(Cl)c3)c2)cc1CNC(C)C | 720 |
| COc1ccc(S(=O)(=O)Nc2cc(C)cc(Br)c2OC)cc1N1CCN(C(=O)C(Cl)(Cl)Cl)CC1 | 870 |
| COc1ccc(OC)c(Cc2cnc3nc(N)nc(N)c3c2C)c1 | 10 |
| COc1ccc(-c2ccnc(-c3cccc(-c4ccccn4)n3)c2)cc1 | 820 |
| O=C(Nc1ccc(C(=O)Oc2ccc3ccccc3c2)cc1)N[C@@H](Cc1ccc(O)cc1)C(=O)NC1CCN(Cc2ccc(O)cc2)C1 (some centres undefined) | 1060 |
| COc1ccc2nc(C)cc(Nc3ccc(Cl)c(Cl)c3)c2c1 | 440 |

| SMILES | IC50 [nM] |
| --- | --- |
| COc1cccc2cc(C(=O)N[C@@H](CC(C)C)C(=O)N[C@H](/C=N/NC(=O)c3ccccc3)Cc3cnc[nH]3)oc12 | 130 |
| CCOc1ccc(-c2nc(NC(=O)Cc3cccc(OC)c3)sc2C)cc1 | 730 |
| CCCC(C)Nc1nc(C)cc(N[C@@H](Cc2ccccc2)C(=O)Nc2ccc(OC)cc2)n1 (some centres undefined) | 1120 |
| Cc1cccc2[nH]c(-c3cccc(-c4ccc(NC(=O)NCc5ccccc5)cc4)c3)nc12 | 230 |
| COc1cc2c(c(Cl)c1OC)CCN(Cc1ccccc1)CC2c1ccc(C(N)=O)cc1 (centres undefined) | 850 |
| CCCCOc1ccc(-n2c(Nc3ccccc3)nc3cc(S(N)(=O)=O)ccc32)cc1 | 890 |
| COc1ccc(N2CCN(CCCCNC(=O)c3ccc(NC(=O)c4ccc(OC(F)(F)F)cc4)cc3)CC2)c(OC)c1 | 580 |
| COc1ccc(C(=O)Nc2nonc2-c2ccc(OC)c(OC)c2)cc1Cl | 670 |
| Cc1cccc(C(=O)Nc2ccnc(N(C)CCCN(C)Cc3cccc(C#N)c3)c2)c1 | 1320 |
| CC(C)(C)c1cc(C(=O)Nc2ccc(C(=N)N)cc2)c(O)c(C(C)(C)C)c1 | 760 |
| N#Cc1ccc2c(c1)CCN(CCC1CCC(NC(=O)Nc3cnc4ccccc4c3)CC1)C2 (centres undefined) | 770 |
| Cc1cccc(NC(=O)NC2CCN(CCCCCNC(=O)/C=C/c3ccc(Cl)c(Cl)c3)CC2)c1 | 750 |
| Cc1cccc(C(=O)Nc2ccnc(N3CCC(N(C)Cc4ccccc4)CC3)c2)c1 | 960 |
| Cn1ncc2c3c(CCN4CCC(NCc5cc6c(cn5)OCC6)CC4)c(Cl)cnc3ccc21 | 880 |
| CCCOc1cc(OCCC)cc(-c2cc(=O)c3ccccc3[nH]2)c1 | 60 |
| N#Cc1ccc2c(c1)CCN(CCC1CCC(NC(=O)/C=C/c3cc(Br)cs3)CC1)CC2 (centres undefined) | 1000 |
| CCC(C)CN1CCC(N(C)c2cc(NC(=O)c3cccc(C)c3)ccn2)CC1 (centres undefined) | 940 |
| COC(=O)c1cccc(NC(=O)NC2CCN(c3ccnc(NCc4ccc(F)cc4)n3)CC2)c1 | 810 |
| CC(=O)Nc1ccc(C(=O)Nc2cccc(-c3ccc(-c4nc5ccc(C(F)(F)F)cc5[nH]4)s3)c2)cn1 | 130 |
| CCOC(=O)C(C)(C)Oc1ccc(CN(Cc2ccc(CC(C)C)cc2)C(=O)Nc2ccc(F)cc2F)c(OC)c1 | 240 |
| COc1ccc2cc(C(=O)Nc3ccc4c(c3)CCN(C3CCC3)CC4)ccc2c1 | 840 |
| CCC(C)OC(=O)C1=C(C)NC2=C(C(=O)CC(c3ccc(OC)c(OC)c3)C2)C1c1ccc(O)cc1 (centres undefined) | 220 |
| COc1cccc2cc(C(=O)N[C@@H](CC(C)C)C(=O)N[C@H](/C=N/N(C)C(=O)OC(C)(C)C)Cc3ccccc3)oc12 | 260 |
| CC(C)(C)c1nn(-c2ccc(Cl)cc2)c2[nH]c(=O)c(CNC3CCCC3)cc12 | 230 |
